The values that follow come from PMC9208212, “Comparison of anti-cancer effects of novel protein disulphide isomerase (PDI) inhibitors in breast cancer cells characterized by high and low PDIA17 expression” (Cancer Cell International, 2022).

For data set [1], the target named is T1, PDIA17 (Homo sapiens, UniProt O95994).
T1 construct: PDIA17 (recombinant protein ab64013, human, full length, E.coli, Abcam, Cambridge); purchased Abcam ab64013; host or cells: E. coli
T1 sequence (O95994 21-175): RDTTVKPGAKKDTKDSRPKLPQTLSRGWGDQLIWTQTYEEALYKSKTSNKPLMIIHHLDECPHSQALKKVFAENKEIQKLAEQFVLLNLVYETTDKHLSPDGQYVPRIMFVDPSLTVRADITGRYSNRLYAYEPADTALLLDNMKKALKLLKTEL
Put plainly: Insulin reduction turbidimetry assay, PDIA17. It counts as biochemical. As for the experimental part:
The PDI inhibitor activity towards PDIA1, PDIA3 and PDIA17 was assessed as an increase in disulphide bond reduction in human insulin in the presence of DL-dithiotreitol (DTT) causing aggregation of its β-chain, analyzed by turbidimetry as presented earlier by Kalvins et al. and Chlopicki et al. (see Additional file 1: Methods for more details).
The PDI inhibitors’ activity towards PDIA1, PDIA3 and PDIA17 was assessed as an increase in disulphide bond reduction in human insulin in the presence of DTT causing aggregation of its β-chain, analyzed by turbidimetry as presented earlier by Kalvins et al. 2021 and Chlopicki et al., 2021. Briefly, the assay mixture for 96-well plates was prepared by dissolving in […] phosphate buffer (pH 7.6 for activity testing of PDIA1, PDIA3 and pH 8.0 for PDIA17), 6 µg/ml (96 nM) of PDIA1 (recombinant protein MBS9422429, human, full length, 18-508aa His-tag, E.coli, MyBioSource, San Diego, CA, USA), PDIA3 (recombinant protein MBS203583, 25-505aa, human, His-tag, E.coli, MyBioSource, San Diego, CA, USA) or PDIA17 (recombinant protein ab64013, human, full length, E.coli, Abcam, Cambridge), 2 mM EDTA and 0.08 mM DTT (D9779 Sigma-Aldrich, Steinheim, Germany). Stock solutions of C-3353, C-3380, C-3389 and C-3399 were freshly prepared in dimethyl sulfoxide (DMSO) and subsequently diluted to keep the final DMSO concentration in the assay mixture below 1%. Calculated amounts of compounds solutions were added into test wells, and the reaction was started by the addition of insulin (insulin 91077C, human recombinant; Sigma-Aldrich, Steinheim, Germany) and 0.08 mM of DTT. The final concentration of insulin and DTT in the assay mixture was 0.15 and 0.16 mM, respectively. The reaction rate was monitored at 650 nm on a Microplate Reader Infinite M1000 PRO for 60 minutes at 37°C. Turbidity values for the wells containing only the PDI isoform tested (background values) were subtracted from the turbidity values of the wells containing the tested PDI isoform and selected inhibitors. […]

Data set [2] deals with MDA-MB-231 cells. The data set is described as follows: MTT cell viability assay, MDA-MB-231. It counts as cell-based. To be noted: Homo sapiens; MDA-MB-231 (low PDIA17), 72 h; read-out: IC50, MTT proliferation. As to the method:
(§1) The proliferation rate of the cells was measured using an MTT assay. (see Additional file 1: Methods for details). IC50 parameter was determined as previously described.
(§2) The proliferation rate of the cells was measured using an MTT assay. The cells were seeded on 96-well plates (Sarstedt, Warsaw, Poland) at a density of MDA-MB-231, BALB/3T3 and MCF10A 1×10^4 cells/well, MCF-7 0.75×10^4 cells/well. Cells were incubated in the appropriate culture medium for 24 h before adding the tested compounds. Cells were then treated with each compound in four concentrations in the range 100–0.1 µg/mL. […] Absorbance was measured using a Bio Tek Hybrid H4 reader (BioTek Instruments, USA) at 570 nm wavelength.
(§3) Compounds at each concentration were tested in triplicate in a single experiment, and each experiment was repeated at least three times independently.

Data set [3] has as its system MCF-7 cells. Put plainly: MTT cell viability assay, MCF-7. To be noted: Homo sapiens, MCF7; MCF-7 (high PDIA17), 72 h; read-out: IC50, MTT proliferation. The class given is cell-based. As to the method:
as §1, §2, §3

A short description of data set [4]: MTT cytotoxicity against regular cell line BALB/3T3. The class given is cell-based. To be noted: balb/3t3 cells, BALB/3T3 mouse fibroblasts, read-out: IC50, cytotoxicity against regular cell line. As for the experimental part:
as §1
(§4) To test cytotoxicity of compounds used in this study against regular cell lines, BALB/3T3 and MCF10A cells were used, mouse fibroblast and human breast epithelial cell line, respectively.
as §2, §3

Data set [5] can be described thus: MTT cytotoxicity against regular cell line MCF10A. The class given is cell-based. To be noted: MCF10A human breast epithelial cells, read-out: IC50, cytotoxicity against regular cell line. As for the experimental part:
as §1, §4, §2, §3

Data set [6] relates to MCF-7 cells. The data set is described as follows: Cancer cell adhesion to collagen type I, MCF-7. The class given is cell-based. To be noted: Homo sapiens, MCF7. As for the experimental part: (§5) Detailed procedures for the cancer cell adhesion studies are described in Additional file 1: Methods.
(§6) Briefly, 96-well plates (Corning, Tewksbury, MA, USA) were coated with collagen type I at a concentration of 10 μg/mL (Sigma-Aldrich, Steinheim, Germany) and incubated at 4°C overnight. After 24 h, the plates were blocked with 1% bovine serum albumin (BSA) (Sigma-Aldrich, Steinheim, Germany) in DPBS buffer (Gibco, Scotland, UK) for 60 minutes at 37°C. […] Then, cancer cells were left to adhere to collagen I for 30 min at 37°C. Non-adherent cells were gently washed twice with DPBS, and attached cells were counted in nine randomly selected visual fields for each well using a CQ1 image cytometer (Yokogawa, Tokyo, Japan). Experiments were conducted twice in six technical replicates. The images were analyzed using Columbus 2.4.2 software (Perkin Elmer, Waltham, MA, USA).

The test system of data set [7] is MDA-MB-231 cells. The data set is described as follows: Cancer cell adhesion to collagen type I, MDA-MB-231. It counts as cell-based. The note with it: Homo sapiens. As to the method: as §5, §6
Data set [8] has as its system PDIA1. The note with it: recombinant human PDIA1, insulin/DTT turbidimetry, pH 7.6; cited from earlier work.
Data set [9] deals with PDIA3. The note with it: recombinant human PDIA3, insulin/DTT turbidimetry, pH 7.6; cited from earlier work.
In data set [10] the test system is MCF-7 cells. The data set is described as follows: ECIS wound healing migration assay, MCF-7. It counts as cell-based. To be noted: Homo sapiens, MCF7, tested 10, 30, 100 µM, read-out: Concentration substantially reducing migration rate (ECIS wounding assay). The source says: (§7) The migration of MCF-7 and MDA-MB-231 cells was monitored using real-time quantitative wound healing assays and 96W1E + ECIS arrays (Applied Biophysics, Troy, NY, USA) according to the procedure reported by Stojak et al. with minor modifications and C-3353 inhibitor as a tested compound. Detailed procedures for the ECIS studies are described in Additional file 1: Methods.
(§8) The migration of MCF-7 and MDA-MB-231 cells was monitored using real-time quantitative wound healing assays and 96W1E+ ECIS arrays (Applied Biophysics, Troy, NY, USA) according to the procedure reported by Stojak et al. (2020) with minor modifications. To this end, MDA-MB-231 cells were seeded at a density of 3 × 10^4 per well and MCF-7 cells at a density of 6 × 10^4 cells per well. Before the cell seeding procedure, the 96W1E+ plate was pretreated with 10 mM L-cysteine (Sigma-Aldrich, Steinheim, Germany) according to the manufacturer’s instruction. Immediately after cell seeding, resistance (Ω), capacitance (µF) and impedance (Ω) measurements were initiated at frequencies from 250 Hz to 64 kHz (250, 500, 1000, 2000, 4000, 8000, 16,000, 32,000 and 64,000 Hz) using the multiple frequency time mode. […] The healing process was measured continuously as cells migrated onto the electrode. The area under the curve (AUC) was quantified and normalized to the untreated control. […]

Data set [11] concerns MDA-MB-231 cells. The data set is described as follows: ECIS wound healing migration assay, MDA-MB-231. The note with it: Homo sapiens, tested 10, 30, 100 µM, read-out: Concentration effectively inhibiting migration (ECIS wounding assay). It counts as cell-based.
Excerpt: as §7, §8

Take `COC(=O)C1CN1S(=O)(=O)c1ccc2c(N(C)C)cccc2c1` (stereo not drawn) [Inhibitor C-3399]: the IC50 was over 200 µM in [1]; 8.69 ± 0.89 µM in data set [2]; 11.1 ± 0.78 µM in [3]; 0.12 µM in data set [8]; 4 µM in data set [9]. For the same molecule, the “IC50 PDIA17” value in data set [1] (recombinant human PDIA17, insulin/DTT turbidimetry, pH 8.0, n.a. = not active in range of concentrations used) was “not effective”. Moreover, the figures for the CC50 at 72 h in data set [4] and in data set [5] were 38.2 ± 10.3 µM and 17.9 ± 1.15 µM, respectively. The molecule also showed an activity at 3 µM in data set [6] (MCF-7, inhibitor 3 µM) of about 50%. Further, the activity at 10 µM in data set [7] (MDA-MB-231, inhibitor 10 µM) was about 75%. Further, the “IC50 PDIA3” value in data set [9] is listed as “low micromolar range”.
Turning to `COC(=O)C1CN1S(=O)(=O)c1ccc(F)cc1F` (stereo not drawn) [Inhibitor C-3353], the IC50 in [1] is 20.1 µM; in data set [2], 87.4 ± 9.42 µM; in [3], 22.5 ± 6.42 µM; in data set [8], 5 µM; in data set [9] it was 143 µM. Further, the CC50 at 72 h in data set [4] was over 360 µM; in data set [5] it was 75.6 ± 4.05 µM. In addition, the minimal effective concentration in data set [6] (MCF-7, read-out: Concentration inhibiting adhesion to collagen) was 3 µM; in data set [7] (MDA-MB-231, read-out: Concentration inhibiting adhesion to collagen), 50 µM; in [10], at least 30 µM; in data set [11], 100 µM. Besides, in [8], the “IC50 PDIA1” value is on record as “inhibitory effect on PDIA1”. Also, in [9], the “IC50 PDIA3” value is given as “not on PDIA3”.
